The values below are quoted from earlier work in PubChem BioAssay AID1259409 (Chemical Carcinogenesis Research Information System (CCRIS), 2018).

This series relates to rodent chemically induced tumor inhibition, incidence and multiplicity. Kind of series: CCRIS tumor inhibitor studies.

Values joined by “and” are separate entries in the source; they are usually repeats but may differ in a detail not shown here. Equal entries are not always repeated.

For `OCC(S)CS` (stereo unspecified), the “tumour outcome (control, treated, inhibition, significance)” value was 8/137 (6%), 1/26 (4%), 33%, not calculated (Carcinogen: TRANS-5-AMINO-3-[2-(5-NITRO-2-FURYL)VINYL]-1,2,4-OXADIAZOLE;SQL8506, 28754-68-9, Carcinogen: TRANS-5-AMINO-3-[2-(5-NITRO-2-FURYL)VINYL]-1,2,4-OXADIAZOLE;SQL8506, 28754-68-9, Dose [Inhibitor]: 80 MG/KG 18 HR BEFORE THE 1ST CARCINOGEN DOSE FOLLOWED BY ADDITIONAL INJECTIONS IMMEDIATELY BEFORE EACH DOSE OF CARCINOG, Route [Inhibitor]: INTRAPERITONEAL, Species: MOUSE, Strain/Sex: CD-1/FEMALE, Target Tissue: Type of Lesion: LYMPHOID TISSUE: NONTHYMIC LYMPHOMA, Dose [Carcinogen]: 1 G/KG 2/D FOR 5 D EVERY 4 WK FOR 3 COURSES OF TREATMENT, Promoter: NONE USED); 22/137 (16%), 4/26 (15%), 6%, not calculated (Carcinogen: TRANS-5-AMINO-3-[2-(5-NITRO-2-FURYL)VINYL]-1,2,4-OXADIAZOLE;SQL8506, 28754-68-9, Carcinogen: TRANS-5-AMINO-3-[2-(5-NITRO-2-FURYL)VINYL]-1,2,4-OXADIAZOLE;SQL8506, 28754-68-9, Dose [Inhibitor]: 80 MG/KG 18 HR BEFORE THE 1ST CARCINOGEN DOSE FOLLOWED BY ADDITIONAL INJECTIONS IMMEDIATELY BEFORE EACH DOSE OF CARCINOG, Route [Inhibitor]: INTRAPERITONEAL, Species: MOUSE, Strain/Sex: CD-1/FEMALE, Target Tissue: Type of Lesion: LYMPHOID TISSUE: THYMIC LYMPHOMA, Dose [Carcinogen]: 1 G/KG 2/D FOR 5 D EVERY 4 WK FOR 3 COURSES OF TREATMENT, Promoter: NONE USED); 60/137 (44%), 14/26 (54%), -23%, not calculated (Carcinogen: TRANS-5-AMINO-3-[2-(5-NITRO-2-FURYL)VINYL]-1,2,4-OXADIAZOLE;SQL8506, 28754-68-9, Carcinogen: TRANS-5-AMINO-3-[2-(5-NITRO-2-FURYL)VINYL]-1,2,4-OXADIAZOLE;SQL8506, 28754-68-9, Dose [Inhibitor]: 80 MG/KG 18 HR BEFORE THE 1ST CARCINOGEN DOSE FOLLOWED BY ADDITIONAL INJECTIONS IMMEDIATELY BEFORE EACH DOSE OF CARCINOG, Route [Inhibitor]: INTRAPERITONEAL, Species: MOUSE, Strain/Sex: CD-1/FEMALE, Target Tissue: Type of Lesion: STOMACH: SQUAMOUS CARCINOMA, Dose [Carcinogen]: 1 G/KG 2/D FOR 5 D EVERY 4 WK FOR 3 COURSES OF TREATMENT, Promoter: NONE USED).

In the case of `CCCCCCCCCCCCCCCCCCN`, the “tumour outcome (control, treated, inhibition, significance)” value is, setting by setting: (Carcinogen: 7,12-DIMETHYLBENZ[A]ANTHRACENE, 57-97-6, Dose [Inhibitor]: 0, 0.01% IN 20% CORN OIL DIET BEGINNING 1 WK POST CARCINOGEN DOSE (STUDY DURATION: 17 WK), Route [Inhibitor]: ORAL, Species: RAT, Strain/Sex: SPRAGUE-DAWLEY/FEMALE, Target Tissue: Type of Lesion: MAMMARY GLAND: ADENOCARCINOMA, Dose [Carcinogen]: 5 MG IN 0.5 ML OLIVE OIL ONCE, Promoter: NONE USED) 57%, 57%, 0%, not significant; (Carcinogen: 7,12-DIMETHYLBENZ[A]ANTHRACENE, 57-97-6, Dose [Inhibitor]: 0, 0.1% IN 20% CORN OIL DIET BEGINNING 1 WK POST CARCINOGEN DOSE (STUDY DURATION: 17 WK), Route [Inhibitor]: ORAL, Species: RAT, Strain/Sex: SPRAGUE-DAWLEY/FEMALE, Target Tissue: Type of Lesion: MAMMARY GLAND: ADENOCARCINOMA, Dose [Carcinogen]: 5 MG IN 0.5 ML OLIVE OIL ONCE, Promoter: NONE USED) 57%, 14%, 75%, p<0.001.

Take `NC(=O)NO`: the “tumour outcome (control, treated, inhibition, significance)” value reads like this: (Carcinogen: 7,12-DIMETHYLBENZ[A]ANTHRACENE, 57-97-6, Dose [Inhibitor]: 0, 0.5 MG/G BW IN 0.9% SALINE ONCE 1 HR PRIOR TO FIRST PROMOTER DOSE (STUDY DURATION: 22 WK), Route [Inhibitor]: INTRAPERITONEAL, Species: MOUSE, Strain/Sex: NMRI/FEMALE, Target Tissue: Type of Lesion: SKIN: PAPILLOMA, Dose [Carcinogen]: 50 UG/G BW IN SESAME OIL) 95%, 79%, 17%, not significant; (Carcinogen: 7,12-DIMETHYLBENZ[A]ANTHRACENE, 57-97-6, Dose [Inhibitor]: 0, 0.5 MG/G BW IN 0.9% SALINE ONCE 6 HR POST FIRST PROMOTER DOSE (STUDY DURATION: 22 WK), Route [Inhibitor]: INTRAPERITONEAL, Species: MOUSE, Strain/Sex: NMRI/FEMALE, Target Tissue: Type of Lesion: SKIN: PAPILLOMA, Dose [Carcinogen]: 50 UG/G BW IN SESAME OIL) 95%, 65%, 32%, not calculated; (Carcinogen: 7,12-DIMETHYLBENZ[A]ANTHRACENE, 57-97-6, Dose [Inhibitor]: 0, 0.5 MG/G BW IN 0.9% SALINE ONCE 12 HR POST FIRST PROMOTER DOSE (STUDY DURATION: 22 WK), Route [Inhibitor]: INTRAPERITONEAL, Species: MOUSE, Strain/Sex: NMRI/FEMALE, Target Tissue: Type of Lesion: SKIN: PAPILLOMA, Dose [Carcinogen]: 50 UG/G BW IN SESAME OIL) 95%, 60%, 37%, not calculated and 95%, 59%, 38%, not calculated; (Carcinogen: 7,12-DIMETHYLBENZ[A]ANTHRACENE, 57-97-6, Dose [Inhibitor]: 0, 0.5 MG/G BW IN 0.9% SALINE ONCE 18 HR POST FIRST PROMOTER DOSE (STUDY DURATION: 22 WK), Route [Inhibitor]: INTRAPERITONEAL, Species: MOUSE, Strain/Sex: NMRI/FEMALE, Target Tissue: Type of Lesion: SKIN: PAPILLOMA, Dose [Carcinogen]: 50 UG/G BW IN SESAME OIL) 95%, 33%, 65%, not calculated and 95%, 30%, 68%, not calculated and 93%, 33%, 65%, not calculated; (Carcinogen: 7,12-DIMETHYLBENZ[A]ANTHRACENE, 57-97-6, Dose [Inhibitor]: 0, 0.5 MG/G BW IN 0.9% SALINE ONCE 24 HR POST FIRST PROMOTER DOSE (STUDY DURATION: 22 WK), Route [Inhibitor]: INTRAPERITONEAL, Species: MOUSE, Strain/Sex: NMRI/FEMALE, Target Tissue: Type of Lesion: SKIN: PAPILLOMA, Dose [Carcinogen]: 50 UG/G BW IN SESAME OIL) 95%, 39%, 59%, not calculated and 95%, 45%, 53%, not calculated; (Carcinogen: 7,12-DIMETHYLBENZ[A]ANTHRACENE, 57-97-6, Dose [Inhibitor]: 0, 0.5 MG/G BW IN 0.9% SALINE ONCE 48 HR POST FIRST PROMOTER DOSE (STUDY DURATION: 22 WK), Route [Inhibitor]: INTRAPERITONEAL, Species: MOUSE, Strain/Sex: NMRI/FEMALE, Target Tissue: Type of Lesion: SKIN: PAPILLOMA, Dose [Carcinogen]: 50 UG/G BW IN SESAME OIL) 95%, 94%, 1%, not significant.
